# Source: PubChem BioAssay AID330 (DTP/NCI, 2004)
# “And” between values parts separate entries of the source, which are not always exact repeats. Identical values can stand only once. Toxic doses and inconclusive results are not listed.
# Test system: P388 leukemia ip, CD2F1 mice, survival T/C
# Assay: NCI In Vivo Anticancer Drug Screen. Data for tumor model P388 Leukemia (intraperitoneal) in CD2F1 (CDF1) mice
# Details: endpoint: median survival time, higher = longer survival
# In short: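 Mice carrying the transplanted tumor received test compound or vehicle. Survival was recorded in each group, and the value is the treated-group measurement divided by that of the vehicle-treated control group.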
# [1] = dose: 50.0 mg/kg/injection, schedule: Q01DX009 (ip), vehicle: Klucel (hydroxypropylcellulose) (HPC)
# [2] = dose: 100.0 mg/kg/injection, schedule: Q01DX009 (ip), vehicle: Klucel (hydroxypropylcellulose) (HPC)
# [3] = dose: 200.0 mg/kg/injection, schedule: Q01DX009 (ip), vehicle: Klucel (hydroxypropylcellulose) (HPC)
# [4] = dose: 50.0 mg/kg/injection, schedule: Q01DX005 (ip), vehicle: saline with Tween-80
# [5] = dose: 100.0 mg/kg/injection, schedule: Q01DX005 (ip), vehicle: saline with Tween-80
# [6] = dose: 50.0 mg/kg/injection, schedule: Q01DX005 (ip), vehicle: Klucel (hydroxypropylcellulose) (HPC)
# [7] = dose: 100.0 mg/kg/injection, schedule: Q01DX005 (ip), vehicle: Klucel (hydroxypropylcellulose) (HPC)
# [8] = dose: 200.0 mg/kg/injection, schedule: Q01DX005 (ip), vehicle: Klucel (hydroxypropylcellulose) (HPC)
# [9] = dose: 100.0 mg/kg/injection, schedule: Q01DX001 (ip), vehicle: saline
# [10] = dose: 200.0 mg/kg/injection, schedule: Q01DX001 (ip), vehicle: saline
# [11] = dose: 400.0 mg/kg/injection, schedule: Q01DX001 (ip), vehicle: saline
# [12] = dose: 25.0 mg/kg/injection, schedule: Q01DX009 (ip), vehicle: saline with Tween-80
# [13] = dose: 50.0 mg/kg/injection, schedule: Q01DX009 (ip), vehicle: saline with Tween-80
# [14] = dose: 100.0 mg/kg/injection, schedule: Q01DX009 (ip), vehicle: saline with Tween-80
# [15] = dose: 200.0 mg/kg/injection, schedule: Q01DX009 (ip), vehicle: saline with Tween-80
# [16] = dose: 12.5 mg/kg/injection, schedule: Q04DX003 (ip), vehicle: saline with Tween-80
# [17] = dose: 50.0 mg/kg/injection, schedule: Q01DX009 (ip), vehicle: saline sonified
# [18] = dose: 60.0 mg/kg/injection, schedule: Q01DX005 (ip), vehicle: Klucel (hydroxypropylcellulose) (HPC)
# [19] = dose: 120.0 mg/kg/injection, schedule: Q01DX005 (ip), vehicle: Klucel (hydroxypropylcellulose) (HPC)
# [20] = dose: 240.0 mg/kg/injection, schedule: Q01DX005 (ip), vehicle: Klucel (hydroxypropylcellulose) (HPC)
# [21] = dose: 100.0 mg/kg/injection, schedule: Q04DX003 (ip), vehicle: saline
# [22] = dose: 200.0 mg/kg/injection, schedule: Q04DX003 (ip), vehicle: saline
# [23] = dose: 60.0 mg/kg/injection, schedule: Q01DX005 (ip), vehicle: saline with Tween-80
# [24] = dose: 120.0 mg/kg/injection, schedule: Q01DX005 (ip), vehicle: saline with Tween-80
# [25] = dose: 50.0 mg/kg/injection, schedule: Q04DX003 (ip), vehicle: saline with Tween-80
# [26] = dose: 100.0 mg/kg/injection, schedule: Q04DX003 (ip), vehicle: saline with Tween-80
# [27] = dose: 200.0 mg/kg/injection, schedule: Q04DX003 (ip), vehicle: saline with Tween-80
# [28] = dose: 240.0 mg/kg/injection, schedule: Q01DX005 (ip), vehicle: saline with Tween-80
smiles,measurement,setting,value
CCCCCCCCCCC(=O)Nc1ncc([N+](=O)[O-])s1,T/C,[1],96 % of control
same,T/C,[2],100 % of control
same,T/C,[3],102 % of control
CCCCCCCCSC(SCCCCCCCC)C(O)C(O)C(O)CO (stereo not drawn),T/C,[4],93 % of control
same,T/C,[5],109 % of control
CNC(=O)OCCC(OC(=O)NC)C1CCC2C3CC=C4CC(O)CCC4(C)C3CCC12C (stereo not drawn),T/C,[6],100 % of control
same,T/C,[7],102 % of control
same,T/C,[8],97 % of control
COC1=CCCC(C(C)=O)C1Sc1ccccc1 (stereo not drawn),T/C,[9],100 % of control
same,T/C,[10],102 % of control
same,T/C,[11],100 % of control
COC(=O)c1nc2c(n(C)/c1=N/C(=O)Nc1ccccc1)CCCC2,T/C,[12],120 % of control
same,T/C,[13],124 % of control
same,T/C,[14],216 % of control
same,T/C,[15],117 % of control
Cc1n[nH]c(=S)n1N,T/C,[1],94 % of control
same,T/C,[2],93 % of control
same,T/C,[3],95 % of control
same,T/C,"dose: 400.0 mg/kg/injection, schedule: Q01DX009 (ip), vehicle: Klucel (hydroxypropylcellulose) (HPC)",88 % of control
CC(=O)Oc1c([N+](=O)[O-])cccc1[N+](=O)[O-],T/C,"dose: 3.13 mg/kg/injection, schedule: Q01DX009 (ip), vehicle: distilled water + Tween-80",111 % of control
same,T/C,"dose: 6.25 mg/kg/injection, schedule: Q01DX009 (ip), vehicle: clinical formulation",100 % of control
same,T/C,"dose: 6.25 mg/kg/injection, schedule: Q01DX009 (ip), vehicle: distilled water + Tween-80",100 % of control and 112 % of control
same,T/C,"dose: 12.5 mg/kg/injection, schedule: Q01DX009 (ip), vehicle: clinical formulation",103 % of control
same,T/C,"dose: 12.5 mg/kg/injection, schedule: Q01DX009 (ip), vehicle: distilled water + Tween-80",107 % of control
same,T/C,"dose: 25.0 mg/kg/injection, schedule: Q01DX009 (ip), vehicle: clinical formulation",108 % of control
same,T/C,"dose: 25.0 mg/kg/injection, schedule: Q01DX009 (ip), vehicle: distilled water + Tween-80",107 % of control
same,T/C,"dose: 50.0 mg/kg/injection, schedule: Q01DX009 (ip), vehicle: distilled water + Tween-80",109 % of control and 115 % of control
same,T/C,"dose: 100.0 mg/kg/injection, schedule: Q01DX009 (ip), vehicle: distilled water + Tween-80",96 % of control
N#CCC1CCCC1=O (stereo not drawn),T/C,[13],103 % of control
same,T/C,[14],99 % of control
Cc1cc(C)c(C(Cl)(Cl)Cl)c(C)c1Cl,T/C,"dose: 6.25 mg/kg/injection, schedule: Q04DX003 (ip), vehicle: saline with Tween-80",104 % of control
same,T/C,"dose: 8.0 mg/kg/injection, schedule: Q04DX003 (ip), vehicle: saline with Tween-80",90 % of control
same,T/C,"dose: 12.0 mg/kg/injection, schedule: Q04DX003 (ip), vehicle: saline with Tween-80",100 % of control
same,T/C,"dose: 12.5 mg/kg/injection, schedule: Q01DX009 (ip), vehicle: saline sonified",118 % of control
same,T/C,[16],118 % of control
same,T/C,"dose: 18.0 mg/kg/injection, schedule: Q04DX003 (ip), vehicle: saline with Tween-80",113 % of control
same,T/C,"dose: 33.0 mg/kg/injection, schedule: Q01DX009 (ip), vehicle: saline sonified",165 % of control
same,T/C,[17],150 % of control
same,T/C,"dose: 75.0 mg/kg/injection, schedule: Q01DX009 (ip), vehicle: saline sonified",105 % of control
O=C1C=CC(=O)C1=Cc1ccc([N+](=O)[O-])cc1,T/C,"dose: 2.5 mg/kg/injection, schedule: Q04DX002 (ip), vehicle: saline with Tween-80",100 % of control
same,T/C,"dose: 5.0 mg/kg/injection, schedule: Q04DX002 (ip), vehicle: saline with Tween-80",104 % of control
same,T/C,"dose: 10.0 mg/kg/injection, schedule: Q04DX002 (ip), vehicle: saline with Tween-80",101 % of control
same,T/C,"dose: 25.0 mg/kg/injection, schedule: Q04DX002 (ip), vehicle: saline with Tween-80",96 % of control
same,T/C,"dose: 50.0 mg/kg/injection, schedule: Q04DX002 (ip), vehicle: saline with Tween-80",98 % of control
CNC(C#N)C(C)F (stereo not drawn),T/C,"dose: 15.0 mg/kg/injection, schedule: Q01DX005 (ip), vehicle: saline",98 % of control
same,T/C,"dose: 30.0 mg/kg/injection, schedule: Q01DX005 (ip), vehicle: saline",99 % of control
same,T/C,"dose: 60.0 mg/kg/injection, schedule: Q01DX005 (ip), vehicle: saline",99 % of control and 98 % of control
Cc1onc(-c2ccccc2)c1C,T/C,[9],99 % of control
same,T/C,[10],102 % of control
same,T/C,[11],105 % of control
O=C1CCCc2c1[nH]c1ccccc21,T/C,[12],100 % of control
same,T/C,[13],105 % of control
same,T/C,[14],108 % of control
same,T/C,[15],104 % of control
Cc1cccc(N2CC3CC4C=CC3(C2)O4)c1 (stereo not drawn),T/C,[18],96 % of control
same,T/C,[19],96 % of control
same,T/C,[20],96 % of control
COc1cc2cnc(-c3ccncc3)cc2cc1OC,T/C,[21],95 % of control
same,T/C,[22],108 % of control
Cc1ccc(OC/C=N\N=C(N)N)cc1C,T/C,[23],101 % of control
same,T/C,[24],93 % of control
N#CC1CCCC(CCc2ccccc2)(c2ccccc2)C1=O (stereo not drawn),T/C,[1],101 % of control
same,T/C,[2],104 % of control
same,T/C,[3],98 % of control
CN=C(C)c1ccc(N(C)C)cc1,T/C,[16],100 % of control
same,T/C,"dose: 25.0 mg/kg/injection, schedule: Q04DX003 (ip), vehicle: saline with Tween-80",100 % of control and 105 % of control
same,T/C,[25],110 % of control and 97 % of control
same,T/C,[26],105 % of control and 115 % of control
same,T/C,[27],100 % of control and 120 % of control
CC1(C)OCC2OC=CC(=O)C2O1 (stereo not drawn),T/C,[25],108 % of control
same,T/C,[26],101 % of control
same,T/C,[21],108 % of control
same,T/C,[27],111 % of control
same,T/C,[22],104 % of control
same,T/C,"dose: 400.0 mg/kg/injection, schedule: Q04DX003 (ip), vehicle: saline with Tween-80",120 % of control
same,T/C,"dose: 400.0 mg/kg/injection, schedule: Q04DX003 (ip), vehicle: saline",124 % of control
CCOc1cccc(/C=N/NC(=O)C(=O)Nc2ccc(Cl)c([N+](=O)[O-])c2)c1O,T/C,[4],100 % of control
same,T/C,[5],89 % of control
same,T/C,"dose: 200.0 mg/kg/injection, schedule: Q01DX005 (ip), vehicle: saline with Tween-80",90 % of control
CCOc1ccncc1[N+](=O)[O-],T/C,"dose: 25.0 mg/kg/injection, schedule: Q01DX009 (ip), vehicle: saline sonified",100 % of control
same,T/C,[17],109 % of control
same,T/C,[23],101 % of control
same,T/C,"dose: 100.0 mg/kg/injection, schedule: Q01DX009 (ip), vehicle: saline sonified",90 % of control
same,T/C,[24],93 % of control
same,T/C,[28],95 % of control
COc1cc([C@@H]2c3cc(O)c(OC)cc3C[C@H]3C(=O)OC[C@@H]23)ccc1O,T/C,[6],96 % of control
same,T/C,[7],96 % of control
same,T/C,[8],100 % of control
COc1ccc(C2c3cc4c(cc3OC(C)(O)C2C)OCO4)cc1 (stereo not drawn),T/C,[18],95 % of control
same,T/C,[19],98 % of control
same,T/C,[20],93 % of control
c1ccc(C2=C(c3ccccc3)c3ccccc3CO2)cc1,T/C,[9],105 % of control
same,T/C,[10],100 % of control
same,T/C,[11],100 % of control
COC[N+](C)(C)c1ccc(/C=C/C=O)cc1,T/C,"dose: 12.5 mg/kg/injection, schedule: Q01DX009 (ip), vehicle: saline",114 % of control
same,T/C,"dose: 25.0 mg/kg/injection, schedule: Q01DX009 (ip), vehicle: saline",109 % of control
same,T/C,"dose: 50.0 mg/kg/injection, schedule: Q01DX009 (ip), vehicle: saline",118 % of control and 98 % of control
CCCCC(O)CNc1ccccc1 (stereo not drawn),T/C,[23],105 % of control
same,T/C,[24],99 % of control
same,T/C,[28],90 % of control
CCc1nc(N)nc(N)c1-c1ccc(OC)c(N=[N+]=[N-])c1,T/C,[23],97 % of control
same,T/C,[24],100 % of control
same,T/C,[28],117 % of control
